Source: patent US20260274855A1, “AMORPHOUS FORM OF ISOQUINOLINE DERIVATIVE” (vTv Therapeutics LLC, priority 2020, published 2026)
Structures can show the parent of a compound that is named as a salt. Where two headings read alike, the source gives them in different places.

Tests used:
Type in all cases: physicochemical
[1] = Hygroscopicity study, DVS test (25° C., 80% RH)
Experimental: Dynamic moisture adsorption (DVS) curves were collected on DVS Intrinsic of Surface Measurement Systems (SMS). The relative humidity at 25° C. was corrected with the deliquescent points of LiCl, Mg(NO3)2 and KCl.

[2] = 30-day stability study at 60° C.
Experimental: A 30-day stability study at 60° C. was conducted on a sample of material obtained from the method of Example 3.

[3] = Dissolution studies, four-part dissolution test method of Chinese Pharmacopoeia (2015 edition)
Experimental: Dissolution studies were conducted according to the four-part dissolution test method in the Chinese Pharmacopoeia (2015 edition) in the following solvents: methanol, acetic acid, ethanol, 0.1 mol/L HCl, acetonitrile, and 2-methyltetrahydrofuran. The dissolution study method involves weighing a fine powder (after grinding) of solid test product, attempting to dissolve in a proper volume of solvent by strongly shaking for 30 seconds every 5 minutes for 30 minutes, and recording observations after 30 minutes.

[4] = 3 month stability study at 25° C. ± 2° C. and 60% RH
Experimental: A 3-month stability study was conducted at 25° C.±2° C. and 60% relative humidity.

[5] = Solubility in aqueous solutions at various pH's
[6] = Stability study at 40° C. and 100% RH for 7 days
Experimental: The stability of crystal form B of OAD2 hydrochloride and the amorphous form of OAD2 dihydrochloride was tested under conditions of 40° C./100% RH for 1 week.

[7] = Month 0, listed as Ex. 3, dihydrochloride salt
[8] = Month 0, listed as Ex. 4, dihydrochloride salt
[9] = Month 0, listed as Ex. 5, dihydrochloride salt
[10] = Month 1, listed as Ex. 3, dihydrochloride salt
[11] = Month 1, listed as Ex. 4, dihydrochloride salt
[12] = Month 1, listed as Ex. 5, dihydrochloride salt
[13] = Month 2, listed as Ex. 3, dihydrochloride salt
[14] = Month 2, listed as Ex. 4, dihydrochloride salt
[15] = Month 2, listed as Ex. 5, dihydrochloride salt
[16] = Month 3, listed as Ex. 3, dihydrochloride salt
[17] = Month 3, listed as Ex. 4, dihydrochloride salt
[18] = Month 3, listed as Ex. 5, dihydrochloride salt

- Moisture adsorption rate [1]: 8.3%
- Appearance ([2]; Day 0): Off-white
- Moisture Content ([2]; Day 0): 1.6%
- Percentage of external standard content ([2]; Day 0): 97.1%
- Purity ([2]; Day 0): 99.03%
- Solid form ([2]; Day 0): Amorphous
- Appearance ([2]; Day 5): Off-white
- Moisture Content ([2]; Day 5): 2.7%
- Percentage of external standard content ([2]; Day 5): 99.1%
- Purity ([2]; Day 5): 98.7%
- Solid form ([2]; Day 5): Amorphous
- Appearance ([2]; Day 10): Off-white
- Moisture Content ([2]; Day 10): 2.4%
- Percentage of external standard content ([2]; Day 10): 97.5%
- Purity ([2]; Day 10): 98.7%
- Solid form ([2]; Day 10): Amorphous
- Appearance ([2]; Day 30): Pale-yellow
- Moisture Content ([2]; Day 30): 2.5%
- Percentage of external standard content ([2]; Day 30): 97.4%
- Purity ([2]; Day 30): 97.7%
- Solid form ([2]; Day 30): Amorphous
- Dissolution ([3]; 0.1 mol/L HCl, about 1 g sample in 9.99 mL, after 30 minutes, listed as 3, dihydrochloride salt): Incomplete
- Dissolution ([3]; 0.1 mol/L HCl, about 1 g sample in 9.99 mL, after 30 minutes, listed as 4, dihydrochloride salt): Incomplete
- Dissolution ([3]; 0.1 mol/L HCl, about 1 g sample in 9.99 mL, after 30 minutes, listed as 5, dihydrochloride salt): Incomplete
- Dissolution ([3]; 0.1 mol/L HCl, about 1 g sample in 9.99 mL, after 30 minutes, listed as amorphous solid of OAD2 dihydrochloride salt, dihydrochloride salt): completely dissolved
- Dissolution ([3]; 0.1 mol/L HCl, about 1 g sample in 29.99 mL, after 30 minutes): Complete
- Dissolution ([3]; 2-methyl tetrahydrofuran, about 0.01 g sample in 101 mL, after 30 minutes, listed as 3, dihydrochloride salt): Incomplete
- Dissolution ([3]; 2-methyl tetrahydrofuran, about 0.01 g sample in 101 mL, after 30 minutes, listed as 4, dihydrochloride salt): Incomplete
- Dissolution ([3]; 2-methyl tetrahydrofuran, about 0.01 g sample in 101 mL, after 30 minutes, listed as 5, dihydrochloride salt): Incomplete
- Dissolution ([3]; 2-methyl tetrahydrofuran, about 0.01 g sample in 101 mL, after 30 minutes, listed as amorphous solid of OAD2 dihydrochloride salt, dihydrochloride salt): incompletely dissolved
- Dissolution ([3]; Acetonitrile, about 0.01 g sample in 101 mL, after 30 minutes, listed as 3, dihydrochloride salt): Incomplete
- Dissolution ([3]; Acetonitrile, about 0.01 g sample in 101 mL, after 30 minutes, listed as 4, dihydrochloride salt): Incomplete
- Dissolution ([3]; Acetonitrile, about 0.01 g sample in 101 mL, after 30 minutes, listed as 5, dihydrochloride salt): Incomplete
- Dissolution ([3]; Acetonitrile, about 0.01 g sample in 101 mL, after 30 minutes, listed as amorphous solid of OAD2 dihydrochloride salt, dihydrochloride salt): incompletely dissolved
- Dissolution ([3]; Ethanol, about 1 g sample in 9.99 mL, after 30 minutes, listed as 3, dihydrochloride salt): Incomplete
- Dissolution ([3]; Ethanol, about 1 g sample in 9.99 mL, after 30 minutes, listed as 4, dihydrochloride salt): Incomplete
- Dissolution ([3]; Ethanol, about 1 g sample in 9.99 mL, after 30 minutes, listed as 5, dihydrochloride salt): Incomplete
- Dissolution ([3]; Ethanol, about 1 g sample in 9.99 mL, after 30 minutes, listed as amorphous solid of OAD2 dihydrochloride salt, dihydrochloride salt): completely dissolved
- Dissolution ([3]; Ethanol, about 1 g sample in 29.99 mL, after 30 minutes): Complete
- Dissolution ([3]; Methanol, about 1 g sample in 9.99 mL, after 30 minutes, listed as 3, dihydrochloride salt): Complete
- Dissolution ([3]; Methanol, about 1 g sample in 9.99 mL, after 30 minutes, listed as 4, dihydrochloride salt): Complete
- Dissolution ([3]; Methanol, about 1 g sample in 9.99 mL, after 30 minutes, listed as 5, dihydrochloride salt): Complete
- Dissolution ([3]; Methanol, about 1 g sample in 9.99 mL, after 30 minutes, listed as amorphous solid of OAD2 dihydrochloride salt, dihydrochloride salt): completely dissolved
- Dissolution ([3]; acetic acid, about 10 mL of solvent): completely dissolved
- Appearance ([4]; Month 0): Off-white
- Solid form ([4]; Month 0): Amorphous
- Moisture Content [4, 7]: 1.7%
- Percentage of external standard content [4, 7]: 98.1%
- Purity [4, 7]: 99.30%
- Moisture Content [4, 8]: 2.5%
- Percentage of external standard content [4, 8]: 97.1%
- Purity [4, 8]: 98.7%
- Moisture Content [4, 9]: 1.6%
- Percentage of external standard content [4, 9]: 97.1%
- Purity [4, 9]: 99.03%
- Appearance ([4]; Month 1): Off-white
- Solid form ([4]; Month 1): Amorphous
- Moisture Content [4, 10]: 3.1%
- Percentage of external standard content [4, 10]: 99.0%
- Purity [4, 10]: 99.25%
- Moisture Content [4, 11]: 4.7%
- Percentage of external standard content [4, 11]: 96.8%
- Purity [4, 11]: 98.6%
- Moisture Content [4, 12]: 3.3%
- Percentage of external standard content [4, 12]: 97.2%
- Purity [4, 12]: 98.90%
- Appearance ([4]; Month 2): Off-white
- Solid form ([4]; Month 2): Amorphous
- Moisture Content [4, 13]: 3.4%
- Percentage of external standard content [4, 13]: 98.7%
- Purity [4, 13]: 99.30%
- Moisture Content [4, 14]: 3.6%
- Percentage of external standard content [4, 14]: 97.6%
- Purity [4, 14]: 98.6%
- Moisture Content [4, 15]: 4.1%
- Percentage of external standard content [4, 15]: 97.8%
- Purity [4, 15]: 98.90%
- Appearance ([4]; Month 3): Off-white
- Solid form ([4]; Month 3): Amorphous
- Moisture Content [4, 16]: 3.7%
- Percentage of external standard content [4, 16]: 99.8%
- Purity [4, 16]: 99.23%
- Moisture Content [4, 17]: 4.8%
- Percentage of external standard content [4, 17]: 98.2%
- Purity [4, 17]: 98.5%
- Moisture Content [4, 18]: 4.5%
- Percentage of external standard content [4, 18]: 98.7%
- Purity [4, 18]: 98.90%
- solubility ([5]; Buffer pH 5): Not detectable
- solubility ([5]; aqueous solution, aqueous buffer, thermodynamic from solid, Buffer pH 7, read-out: Solubility): 90 µg/mL
- solubility ([5]; aqueous solution, aqueous buffer, thermodynamic from solid, Buffer pH 9, read-out: Solubility): 50 µg/mL
- solubility ([5]; aqueous solution, aqueous buffer, thermodynamic from solid, solvent 0.1 NaOH, read-out: Solubility): 17 µg/mL
- solubility ([5]; aqueous solution, simulated gastric fluid, thermodynamic from solid, solvent 0.1 HCl, read-out: Solubility): > 51000 µg/mL
- solubility ([5]; solvent 0.1 HCl, listed as OAD2 dihydrochloride salt, dihydrochloride salt): >51000 µg/mL
- Decrease in purity ([6]; 40° C./100% RH for 1 week): no distinct decrease in purity
- HPLC (area %) ([6]; 40° C./100% RH/7 d): 97.51 area %
- HPLC (area %) ([6]; Initiation): 98.91 area %
Compound: CC[C@@H](c1ccccc1)N1Cc2cc3c(cc2C[C@H]1C(=O)N[C@@H](Cc1ccc(-c2ccnc(C)c2C)cc1)C(=O)O)OC[C@H](c1ccc(OCc2ccc(Cl)c(Cl)c2)cc1)O3 [OAD2 dihydrochloride, (S)-2-(3S,8S)-3-(4-(3,4-dichlorobenzyloxy)phenyl-7-((S)-1-phenylpropyl)-2,3,6,7,8,9-hexahydro-[1,4]-dioxino[2,3-g]isoquinolin-8-ylformylamino)-3-(4-(2,3-dimethylpyridin-4-yl)phenyl)propionic acid dihydrochloride salt]
